# Test results reported in patent publication US6414019B1, “Synergistic mixtures of selected amino acids” (Agrogene Ltd., priority 1997, dated 2002).
# Where “and” joins values, the source holds several entries; their conditions need not be identical. Equal values may be shown once. Read-outs that look alike come from different tables or passages of the source.
# System: Phytophthora infestans (resistant to metalaxyl)
# Format: in vivo
# [1] = 16 mg/L active ingredient, 7 days post inoculation, Table 8
# [2] = 25 mg/L active ingredient, 5 days post inoculation, Table 12
# [3] = 62 mg/L active ingredient, 7 days post inoculation, Table 8
# [4] = 125 mg/L active ingredient, 4 day post inoculation, Table 7
# [5] = 250 mg/L active ingredient, 4 days post inoculation, Table 11
# [6] = 250 mg/L active ingredient, 7 days post inoculation, Table 8
# [7] = 16 mg/L active ingredient, 5 days post inoculation, Table 2
# [8] = 16 mg/L active ingredient, 6 day post inoculation, Table 6
# [9] = 62 mg/L active ingredient, 5 days post inoculation, Table 2
# [10] = 62 mg/L active ingredient, 6 day post inoculation, Table 6
# [11] = 250 mg/L active ingredient, 5 days post inoculation, Table 2
# [12] = 250 mg/L active ingredient, 6 day post inoculation, Table 6
# [13] = 250 mg/L active ingredient, Table 27
# [14] = 500 mg/L active ingredient, Table 27
# [15] = 1000 mg/L active ingredient, 6 day post inoculation, Table 6
# [16] = 1000 mg/L active ingredient, Table 27
# [17] = Cultivar Cara, 16 mg/L active ingredient, 5 days post inoculation, Table 3
# [18] = Cultivar Cara, 62 mg/L active ingredient, 5 days post inoculation, Table 3
# [19] = Cultivar Cara, 250 mg/L active ingredient, 5 days post inoculation, Table 3
# [20] = Cultivar Cara, 1000 mg/L active ingredient, 5 days post inoculation, Table 3
# [21] = Cultivar Draga, 16 mg/L active ingredient, 5 days post inoculation, Table 3
# [22] = Cultivar Draga, 62 mg/L active ingredient, 5 days post inoculation, Table 3
# [23] = Cultivar Draga, 250 mg/L active ingredient, 5 days post inoculation, Table 3
# [24] = Cultivar Draga, 1000 mg/L active ingredient, 5 days post inoculation, Table 3
smiles,measurement,setting,value
CCCCCCCCOC(=O)CC(C)NC(=O)c1ccccc1 (racemic) [N-benzoyl octyl ester derivative of BABA],Percent Disease Control,[1],3%
same,Percent Disease Control,"16 mg/L active ingredient, 7 days post inoculation, Table 9",0%
same,Percent Disease Control,"16 mg/L active ingredient, 7 days post inoculation, Table 10",0%
same,Percent Disease Control,[2],15%
same,Percent Disease Control,[3],25%
same,Percent Disease Control,"62 mg/L active ingredient, 7 days post inoculation, Table 9",0%
same,Percent Disease Control,"62 mg/L active ingredient, 7 days post inoculation, Table 10",0%
same,Percent Disease Control,[4],15%
same,Percent Disease Control,"250 mg/L active ingredient, 4 day post inoculation, Table 7",25%
same,Percent Disease Control,[5],63%
same,Percent Disease Control,[6],25%
same,Percent Disease Control,"250 mg/L active ingredient, 7 days post inoculation, Table 9",0%
same,Percent Disease Control,"250 mg/L active ingredient, 7 days post inoculation, Table 10",0%
same,Percent Disease Control,"500 mg/L active ingredient, 4 days post inoculation, Table 11",69%
same,Percent Disease Control,"500 mg/L active ingredient, 5 days post inoculation, Table 12",25%
same,Percent Disease Control,"1000 mg/L active ingredient, 4 day post inoculation, Table 7",50%
same,Percent Disease Control,"1000 mg/L active ingredient, 4 days post inoculation, Table 11",85%
same,Percent Disease Control,"1000 mg/L active ingredient, 5 days post inoculation, Table 12",50%
same,Percent Disease Control,"1000 mg/L active ingredient, 7 days post inoculation, Table 8",75%
same,Percent Disease Control,"1000 mg/L active ingredient, 7 days post inoculation, Table 9",25%
same,Percent Disease Control,"1000 mg/L active ingredient, 7 days post inoculation, Table 10",25%
same,Percent Disease Control,"2000 mg/L active ingredient, 4 day post inoculation, Table 7",53%
same,Percent Disease Control,"2000 mg/L active ingredient, 4 days post inoculation, Table 11",89%
same,Percent Disease Control,"2000 mg/L active ingredient, 5 days post inoculation, Table 12",53%
"CC(N)CC(=O)O (stereo not drawn) [BABA, DLβ-amino-butanoic acid]",Percent Disease Control,"16 mg/L active ingredient, 5 day post inoculation, Table 4",3%
same,Percent Disease Control,[7],3%
same,Percent Disease Control,[8],22%
same,Percent Disease Control,"16 mg/L active ingredient, 7 days, Table 5",14%
same,Percent Disease Control,"32 mg/L active ingredient, 5 days post inoculation, Table 1",0%
same,Percent Disease Control,"62 mg/L active ingredient, 5 day post inoculation, Table 4",24%
same,Percent Disease Control,[9],24%
same,Percent Disease Control,[10],22%
same,Percent Disease Control,"62 mg/L active ingredient, 7 days, Table 5",14%
same,Percent Disease Control,"125 mg/L active ingredient, 5 days post inoculation, Table 1",0%
same,Percent Disease Control,"250 mg/L active ingredient, 5 day post inoculation, Table 4",18%
same,Percent Disease Control,"250 mg/L active ingredient, 5 days post inoculation, Table 1",0%
same,Percent Disease Control,[11],18%
same,Percent Disease Control,[12],22%
same,Percent Disease Control,"250 mg/L active ingredient, 7 days, Table 5",14%
same,Percent Disease Control,[13],38%
same,Percent Disease Control,[14],75%
same,Percent Disease Control,"1000 mg/L active ingredient, 5 day post inoculation, Table 4",64%
same,Percent Disease Control,"1000 mg/L active ingredient, 5 days post inoculation, Table 1",13%
same,Percent Disease Control,"1000 mg/L active ingredient, 5 days post inoculation, Table 2",64%
same,Percent Disease Control,[15],69%
same,Percent Disease Control,"1000 mg/L active ingredient, 7 days, Table 5",36%
same,Percent Disease Control,[16],93%
same,ED90,7 days,2617 µg/mL
same,Percent Disease Control,[17],9%
same,Percent Disease Control,[18],9%
same,Percent Disease Control,[19],9%
same,Percent Disease Control,[20],24%
same,Percent Disease Control,[21],0%
same,Percent Disease Control,[22],0%
same,Percent Disease Control,[23],0%
same,Percent Disease Control,[24],53%
"CSC(=O)c1cccc2nnsc12 [BION, Acibenzolar-s-methyl]",Percent Disease Control,[13],13%
same,Percent Disease Control,[14],25%
same,Percent Disease Control,[16],78%
same,ED90,Table 27,1173 µg/mL
"[Cu+2].[OH-].[OH-] [Cu(OH)2, copper hydroxide]",Percent Disease Control,"4 mg/L active ingredient, 7 days post inoculation, Table 8",0%
same,Percent Disease Control,[1],0%
same,Percent Disease Control,[3],13%
same,Percent Disease Control,[6],75%
same,ED90,"7 days post inoculation, Table 8",298 µg/mL
CCNC(=O)NC(=O)/C(C#N)=N/OC [Cymoxanil],Percent Disease Control,"4 mg/L active ingredient, 5 days post inoculation, Table 2",36%
same,Percent Disease Control,[7],73%
same,Percent Disease Control,[8],83%
same,Percent Disease Control,[9],64%
same,Percent Disease Control,[10],86%
same,Percent Disease Control,[11],98%
same,Percent Disease Control,[12],91%
same,Percent Disease Control,[15],100%
same,ED90,in vivo,128 µg/mL and 183 µg/mL
"O=C1c2ccccc2C(=O)N1SC(Cl)(Cl)Cl [FOLPET, Folpet]",Percent Disease Control,"4 mg/L active ingredient, 4 days post inoculation, Table 11",70%
same,Percent Disease Control,"16 mg/L active ingredient, 4 days post inoculation, Table 11",75%
same,Percent Disease Control,[8],81%
same,Percent Disease Control,"62 mg/L active ingredient, 4 days post inoculation, Table 11",90%
same,Percent Disease Control,[10],95%
same,Percent Disease Control,[5],95%
same,Percent Disease Control,[12],98%
same,Percent Disease Control,[15],100%
same,ED90,"4 days post inoculation, Table 11",141 µg/mL
same,ED90,"6 day post inoculation, Table 6",84 µg/mL
Cc1ccc(C(C)NC(=O)[C@@H](NC(=O)OC(C)C)C(C)C)cc1 (some centres unmarked) [Fencaramid],Percent Disease Control,"2 mg/L active ingredient, 4 day post inoculation, Table 7",0%
same,Percent Disease Control,"2 mg/L active ingredient, 5 days post inoculation, Table 12",0%
same,Percent Disease Control,"8 mg/L active ingredient, 4 day post inoculation, Table 7",50%
same,Percent Disease Control,"8 mg/L active ingredient, 5 days post inoculation, Table 12",50%
same,Percent Disease Control,[2],100%
same,Percent Disease Control,"31 mg/L active ingredient, 5 days post inoculation, Table 12",98%
same,Percent Disease Control,"32 mg/L active ingredient, 4 day post inoculation, Table 7",98%
same,Percent Disease Control,[4],100%
same,ED90,"4 day post inoculation, Table 7",19 µg/mL
same,ED90,"5 days post inoculation, Table 12",19 µg/mL
"CCO[PH](=O)O [Fosetyl − Al, phosetyl-aluminium]",Percent Disease Control,[17],9%
same,Percent Disease Control,[18],24%
same,Percent Disease Control,[19],24%
same,Percent Disease Control,[20],70%
same,ED90,"Cultivar Cara, 5 days post inoculation, Table 3",1390 µg/mL
same,Percent Disease Control,[21],33%
same,Percent Disease Control,[22],33%
same,Percent Disease Control,[23],50%
same,Percent Disease Control,[24],93%
same,ED90,"Cultivar Draga, 5 days post inoculation, Table 3",856 µg/mL
